Laboratory results reported in patent US9211310B2, “Use of a Chinese medicine composition in preparing medicaments for treating secondary prevention of myocardial infarction” (TASLY PHARMACEUTICAL GROUP CO., LTD, priority 2010, dated 2015).

Tested on: patients after acute myocardial infarction
Experiment: Angina pectoris score, total and single (frequency/attack times, duration, pain degree, dose of nitroglycerin), same clinical trial
Assay type: in vivo, human
Design: total angina pectoris score, Md / total angina pectoris score, Mean: scale not given here
Conditions: for patients with change of dose of nitroglycerin score −6 (%) / distribution of total angina pectoris score: Medium, number of patients / distribution of total angina pectoris score: Medium, percentage of patients / distribution of total angina pectoris score: Mild, number of patients / distribution of total angina pectoris score: Mild, percentage of patients / distribution of total angina pectoris score: Severe, number of patients / distribution of total angina pectoris score: Severe, percentage of patients / patients with dose of nitroglycerin score 0 (%) / patients with dose of nitroglycerin score 1 (%) / patients with dose of nitroglycerin score 2 (%) / patients with dose of nitroglycerin score 4 (%) / patients with dose of nitroglycerin score 6 (%) / total angina pectoris score, Md / total angina pectoris score, Mean / change of total angina pectoris score, Md / change of total angina pectoris score, Mean / patients with change of dose of nitroglycerin score 0 (%) / patients with change of dose of nitroglycerin score 1 (%) / patients with change of dose of nitroglycerin score 2 (%) / patients with change of dose of nitroglycerin score 4 (%) / patients with change of dose of nitroglycerin score 6 (%) / patients with change of dose of nitroglycerin score −1 (%) / patients with change of dose of nitroglycerin score −2 (%) / patients with change of dose of nitroglycerin score −3 (%) / patients with change of dose of nitroglycerin score −4 (%) / patients with change of dose of nitroglycerin score −5 (%): PP; for attack times score, patients (%): month after treatment
Excerpt: In order to better understand the present invention, a multi-center, randomized, double-blind, double-dummy and positive drug controlled trial had been conducted. 3508 patients who were in accordance with the diagnostic standards of AMI for 28 days to 2 years and differentiated as Qi deficiency and blood stagnation syndrome by TCM were studied. 0.5 g Chinese medicine composition prepared by the method of EXAMPLE 1 (Coded as QSYQ) was administrated half an hour after meal, 3 times per day. Aspirine was used as a positive drug. The patients were treated for 1 year and observed for 6 months.
They included the overall survival time, angina pectoris score, TCM symptom score and life quality score, where angina pectoris score, TCM symptom score and life quality score were evaluated at randomization, in 1st, 3rd, 6th, 9th, 12th month after treatment and 18th month after follow-up.
Total angina pectoris score was described on every observation period and the change of observation in comparison with baseline. T-test or Wilcoxon rank sum test were used for inter-group comparison. Grade of total score was evaluated on every observation and Wilcoxon rank sum test was used for inter-group comparison. T-test and Pairing signed rank sum test were used for analyzing the change of total score on every observation between groups in comparison with the baseline.
Single angina pectoris score was depicted on every observation time-point and the change of observation in comparison with baseline. Wilcoxon rank sum test was used for inter-group comparison. Pairing signed rank sum test was used for analyzing the change of total score on every observation between groups in comparison with the baseline.
Total angina pectoris score was described on every observation period and the change of observation in comparison with the baseline. T-test or Wilcoxon rank sum test were used for inter-group comparison. Grade of total score was evaluated on every observation and Wilcoxon rank sum test was used for inter-group comparison. T-test and Pairing signed rank sum test were used for analyzing the change of total score on every observation between groups in comparison with the baseline.
Single angina pectoris score was described on every observation time-point and the change of observation in comparison with baseline. Wilcoxon rank sum test was used for inter-group comparison. Pairing signed rank sum test was used for analyzing the change of total score on every observation between groups in comparison with the baseline.

[1] = 6 months after treatment-baseline
[2] = 9 months after treatment-baseline
[3] = 12 months after treatment-baseline

CC(=O)Oc1ccccc1C(=O)O [Control group, aspirine]
patients with change of dose of nitroglycerin score −6 (%) (3 months after treatment-baseline): (0.68%)
distribution of total angina pectoris score: Medium, number of patients (6 months after treatment): 278
distribution of total angina pectoris score: Medium, percentage of patients (6 months after treatment): (19.08%)
distribution of total angina pectoris score: Mild, number of patients (6 months after treatment): 1172
distribution of total angina pectoris score: Mild, percentage of patients (6 months after treatment): (80.44%)
distribution of total angina pectoris score: Severe, number of patients (6 months after treatment): 7
distribution of total angina pectoris score: Severe, percentage of patients (6 months after treatment): (0.48%)
patients with dose of nitroglycerin score 0 (%) (6 months after treatment): (67.13%)
patients with dose of nitroglycerin score 1 (%) (6 months after treatment): (1.03%)
patients with dose of nitroglycerin score 2 (%) (6 months after treatment): (27.85%)
patients with dose of nitroglycerin score 4 (%) (6 months after treatment): (2.75%)
patients with dose of nitroglycerin score 6 (%) (6 months after treatment): (1.24%)
total angina pectoris score, Md (6 months after treatment): 5.00
total angina pectoris score, Mean (6 months after treatment): 4.54
change of total angina pectoris score, Md [1]: −1.00
change of total angina pectoris score, Mean [1]: −2.58
patients with change of dose of nitroglycerin score 0 (%) [1]: (69.47%)
patients with change of dose of nitroglycerin score 1 (%) [1]: (0.48%)
patients with change of dose of nitroglycerin score 2 (%) [1]: (4.14%)
patients with change of dose of nitroglycerin score 4 (%) [1]: (0.28%)
patients with change of dose of nitroglycerin score 6 (%) [1]: (0.28%)
patients with change of dose of nitroglycerin score −1 (%) [1]: (0.28%)
patients with change of dose of nitroglycerin score −2 (%) [1]: (19.43%)
patients with change of dose of nitroglycerin score −3 (%) [1]: (0.00%)
patients with change of dose of nitroglycerin score −4 (%) [1]: (4.41%)
patients with change of dose of nitroglycerin score −5 (%) [1]: (0.21%)
patients with change of dose of nitroglycerin score −6 (%) [1]: (1.03%)
distribution of total angina pectoris score: Medium, number of patients (9 months after treatment): 233
distribution of total angina pectoris score: Medium, percentage of patients (9 months after treatment): (16.15%)
distribution of total angina pectoris score: Mild, number of patients (9 months after treatment): 1207
distribution of total angina pectoris score: Mild, percentage of patients (9 months after treatment): (83.65%)
distribution of total angina pectoris score: Severe, number of patients (9 months after treatment): 3
distribution of total angina pectoris score: Severe, percentage of patients (9 months after treatment): (0.21%)
patients with dose of nitroglycerin score 0 (%) (9 months after treatment): (68.96%)
patients with dose of nitroglycerin score 1 (%) (9 months after treatment): (1.25%)
patients with dose of nitroglycerin score 2 (%) (9 months after treatment): (27.43%)
patients with dose of nitroglycerin score 4 (%) (9 months after treatment): (1.39%)
patients with dose of nitroglycerin score 6 (%) (9 months after treatment): (0.97%)
total angina pectoris score, Md (9 months after treatment): 5.00
total angina pectoris score, Mean (9 months after treatment): 4.10
change of total angina pectoris score, Md [2]: −2.00
change of total angina pectoris score, Mean [2]: −3.02
patients with change of dose of nitroglycerin score 0 (%) [2]: (66.50%)
patients with change of dose of nitroglycerin score 1 (%) [2]: (0.42%)
patients with change of dose of nitroglycerin score 2 (%) [2]: (4.18%)
patients with change of dose of nitroglycerin score 4 (%) [2]: (0.28%)
patients with change of dose of nitroglycerin score 6 (%) [2]: (0.28%)
patients with change of dose of nitroglycerin score −1 (%) [2]: (0.56%)
patients with change of dose of nitroglycerin score −2 (%) [2]: (21.38%)
patients with change of dose of nitroglycerin score −3 (%) [2]: (0.14%)
patients with change of dose of nitroglycerin score −4 (%) [2]: (4.67%)
patients with change of dose of nitroglycerin score −5 (%) [2]: (0.21%)
patients with change of dose of nitroglycerin score −6 (%) [2]: (1.39%)
distribution of total angina pectoris score: Medium, number of patients (12 months after treatment): 171
distribution of total angina pectoris score: Medium, percentage of patients (12 months after treatment): (11.94%)
distribution of total angina pectoris score: Mild, number of patients (12 months after treatment): 1259
distribution of total angina pectoris score: Mild, percentage of patients (12 months after treatment): (87.92%)
distribution of total angina pectoris score: Severe, number of patients (12 months after treatment): 2
distribution of total angina pectoris score: Severe, percentage of patients (12 months after treatment): (0.14%)
patients with dose of nitroglycerin score 0 (%) (12 months after treatment): (74.81%)
patients with dose of nitroglycerin score 1 (%) (12 months after treatment): (1.33%)
patients with dose of nitroglycerin score 2 (%) (12 months after treatment): (22.18%)
patients with dose of nitroglycerin score 4 (%) (12 months after treatment): (0.91%)
patients with dose of nitroglycerin score 6 (%) (12 months after treatment): (0.77%)
total angina pectoris score, Md (12 months after treatment): 0.00
total angina pectoris score, Mean (12 months after treatment): 3.38
change of total angina pectoris score, Md [3]: −3.00
change of total angina pectoris score, Mean [3]: −3.71
patients with change of dose of nitroglycerin score 0 (%) [3]: (64.63%)
patients with change of dose of nitroglycerin score 1 (%) [3]: (0.63%)
patients with change of dose of nitroglycerin score 2 (%) [3]: (2.88%)
patients with change of dose of nitroglycerin score 4 (%) [3]: (0.07%)
patients with change of dose of nitroglycerin score 6 (%) [3]: (0.28%)
patients with change of dose of nitroglycerin score −1 (%) [3]: (0.63%)
patients with change of dose of nitroglycerin score −2 (%) [3]: (23.37%)
patients with change of dose of nitroglycerin score −3 (%) [3]: (0.07%)
patients with change of dose of nitroglycerin score −4 (%) [3]: (5.47%)
patients with change of dose of nitroglycerin score −5 (%) [3]: (0.07%)
patients with change of dose of nitroglycerin score −6 (%) [3]: (1.89%)
distribution of total angina pectoris score: Medium, number of patients (Baseline): 539
distribution of total angina pectoris score: Medium, percentage of patients (Baseline): (36.01%)
distribution of total angina pectoris score: Mild, number of patients (Baseline): 917
distribution of total angina pectoris score: Mild, percentage of patients (Baseline): (61.26%)
distribution of total angina pectoris score: Severe, number of patients (Baseline): 41
distribution of total angina pectoris score: Severe, percentage of patients (Baseline): (2.74%)
total angina pectoris score, Md (Baseline): 8.00
total angina pectoris score, Mean (Baseline): 7.20
distribution of total angina pectoris score: Medium, number of patients (Follow-up): 192
distribution of total angina pectoris score: Medium, percentage of patients (Follow-up): (13.64%)
distribution of total angina pectoris score: Mild, number of patients (Follow-up): 1215
distribution of total angina pectoris score: Mild, percentage of patients (Follow-up): (86.29%)
distribution of total angina pectoris score: Severe, number of patients (Follow-up): 1
distribution of total angina pectoris score: Severe, percentage of patients (Follow-up): (0.07%)
patients with dose of nitroglycerin score 0 (%) (Follow-up): (74.31%)
patients with dose of nitroglycerin score 1 (%) (Follow-up): (0.93%)
patients with dose of nitroglycerin score 2 (%) (Follow-up): (23.13%)
patients with dose of nitroglycerin score 4 (%) (Follow-up): (1.00%)
patients with dose of nitroglycerin score 6 (%) (Follow-up): (0.64%)
total angina pectoris score, Md (Follow-up): 0.00
total angina pectoris score, Mean (Follow-up): 3.60
change of total angina pectoris score, Md (Follow-up-baseline): −2.00
change of total angina pectoris score, Mean (Follow-up-baseline): −3.51
patients with change of dose of nitroglycerin score 0 (%) (Follow-up-baseline): (64.17%)
patients with change of dose of nitroglycerin score 1 (%) (Follow-up-baseline): (0.29%)
patients with change of dose of nitroglycerin score 2 (%) (Follow-up-baseline): (4.00%)
patients with change of dose of nitroglycerin score 4 (%) (Follow-up-baseline): (0.29%)
patients with change of dose of nitroglycerin score 6 (%) (Follow-up-baseline): (0.21%)
patients with change of dose of nitroglycerin score −1 (%) (Follow-up-baseline): (0.43%)
patients with change of dose of nitroglycerin score −2 (%) (Follow-up-baseline): (22.06%)
patients with change of dose of nitroglycerin score −3 (%) (Follow-up-baseline): (0.14%)
patients with change of dose of nitroglycerin score −4 (%) (Follow-up-baseline): (6.42%)
patients with change of dose of nitroglycerin score −5 (%) (Follow-up-baseline): (0.14%)
patients with change of dose of nitroglycerin score −6 (%) (Follow-up-baseline): (1.86%)
attack times score, patients (%) (score 0, FAS): (36.58%)
attack times score, patients (%) (score 0, PP): (36.33%)
attack times score, patients (%) (score 1, FAS): (10.72%)
attack times score, patients (%) (score 1, PP): (11.08%)
attack times score, patients (%) (score 2, FAS): (46.56%)
attack times score, patients (%) (score 2, PP): (46.88%)
attack times score, patients (%) (score 4, FAS): (6.02%)
attack times score, patients (%) (score 4, PP): (5.57%)
attack times score, patients (%) (score 6, FAS): (0.11%)
attack times score, patients (%) (score 6, PP): (0.13%)
